The record followed here is US11993594B2, “IRAK inhibitors and method for making and using” (Rigel Pharmaceuticals, Inc., priority 2016, dated 2024).

Molecules are shown by their SMILES. Where two headings read alike, the source gives them in different places.

Assay [1] has as its system LPS Induced IL23p19 in THP-1 Cells. Briefly: LPS Induced IL23p19 in THP-1 Cells (with IFNγ Primed) Assay. In kind it is cell-based, human. The note with it: THP-1 cells primed with IFNγ 50 ng/mL, LPS 1 ug/mL, 18 hours, 10 pt, read-out: IL23-p19 ELISA, THP1-IFNγ, LPS, 10 pt EC50. The source says:
LPS Induced IL23p19 in THP-1 Cells (with IFNγ Primed) Assay
THP-1 Cells (ATCC, Cat #TIB-202), Dimethyl Sulfoxide (DMSO) (Sigma-Aldrich, Cat #D2650), RPMI 1640 (Cellgro, Cat #10-040-CM), Fetal Bovine Serum (Sigma, Cat #F4135), Albumin From Bovine Serum (BSA) (Sigma-Aldrich, Cat #A7906), LPS (Serotype K-235, Sigma, Product Number L 2143), IFNγ (Peprotech, Cat #300-02) Capture antibody: Human IL-23p19 ELISA (e-Bioscience, Cat. #14-7238-85), Detection antibody: Primary Mouse Biotinylated anti-human IL-12(p40/p70) (e-Bioscience, Cat. #13-7129-85), Secondary HRP-conjugated Streptavidin (R&D Systems, Cat #DY998), 1×PBST Washing Buffer (PBS-Tween tablet) (VWR International, Cat #80058-558), ELISA Blocking Buffer (PBS with 1% BSA), ELISA Dilution Buffer (PBS with 1% BSA), 384 Well Flat-Bottom, MaxiSorp Black Immuno Plates (Thermo Scientific, Cat #12-565-346), 384 Well Flat-Bottom, White Tissue Culture Plates (Thermo Scientific, Cat #12-565-343), Super Signal ELISA Pico Chemiluminescent Substrate (Thermo Scientific, Cat #37070), Cell Titer Glo reagent (Promega, Cat #G7573), Positive control, IKK2VI inhibitor (Calbiochem, Cat #401483), AquaMax 4000 plate washer (Molecular Devices), Luminometer, Wallac Victor2 1420 Multilabel Counter.
On day 1, 50K/well THP-1 cells were seeded and primed with IFNγ (50 ng/mL) in 384-well plates for about 18 hours in RPMI media with 10% FBS. On day 2, the compound was serially diluted in DMSO from 5 mM in 3-fold dilutions, and then diluted 1:125 in RPMI media with 10% FBS. 50 μL/well 2× compound was added to 50 μL/well THP-1 cells (with IFNγ primed) in duplicate in 384 well tissue culture plates. The cells were pre-incubated with compound for 1 hour at 37° C., 5% CO2 before addition of 10 μL/well 11×LPS to give a final concentration of 1 ug/mL LPS. Day 3, after stimulation for 18 hours at 37° C., 5% CO2, the assay plate was centrifuged and 70 μL/well supernatant was harvested. IL-23p19 protein in 70 µL/well of supernatant was measured by sandwich ELISA, and 25 μl/well Cell Titer Glo reagent was added to the remaining cells to measure compound toxicity.
Human IL-23p19 Sandwich ELISA:
Maxisorp immuno ELISA plates were pre-coated with 25 μL/well of anti-IL-23p19 capture antibody (2.5 ug/mL) in PBS overnight at room temperature. After washing with 1×PBST, the plates were blocked using 100 μL/well of 1% BSA in PBS for 2 hours at room temperature. The plates were washed three times with 1×PBST and 70 μL/well supernatant were added. The plates were incubated at room temperature for 2 hours with shaking and washed three times with 1×PBST. 25 μL/well of biotin labeled anti-IL-12(p40/p70) detection antibody (100 ng/mL) in PBS with 1% BSA was added and the plates were incubated at room temperature for 2 hours with shaking. After washing three times with 1×PBST, 25 μL/well of streptavidin-HRP (1:200) in PBS with 1% BSA was added and the plates were incubated at room temperature for 20 minutes with shaking. The plates were washed three times with 1×PBST and 25 μL/well of Super Signal ELISA Pico Chemiluminescent Substrate were added. The plates were read with a luminometer, and the chemiluminescence values were entered into Athena (Rigel) for curve fitting, EC50 calculation, and database storage. […]

The test system of assay [2] is LPS induced IL-23 (p19/p40) in DC cells. Put plainly: IL23-p19 ELISA, dendritic (DC) cells differentiated from human PBMC, LPS stimulated. In kind it is cell-based. Particulars: LPS 1 μg/ml, 18 hours, 10 pt. How it is done:
Compound Screening Using DC Cells
Human PBMC cells (400 million) obtained from the vendor were transferred into a T-175 flask containing 15 ml RPMI media (10% FBS) and incubate for 2 hours at 37° C. After 2 hours, the media including floating cells was aspirated out carefully and 12 ml of fresh RPMI media (10% FBS) containing GMCSF (100 ng/ml) and IL4 (20 ng/ml) was added, and the flask was kept in a 37° C. incubator for 7 days.
After 3 days, fresh GMCSF (100 ng/ml) and IL4 (20 ng/ml) were added to the flask and the incubation continued. After 7 days, the fully differentiated cells were harvested by spinning down (1200 rpm/5 min) and aspirating the media. The cells were suspended in fresh RPMI media (10% FBS) containing 50 ng/ml IFNγ (1000 U/ml) and then plated (50K/well in 100 μl) onto a white clear bottom 96 well plate and left in a 37° C. incubator for 24 hours.
After 24 hours incubation, 100 μl of RPMI media was added containing 2× concentrated test compound per well to the above cell-culture media (final concentration becomes 1×) and the plates were pre-incubated for 1 hour at 37° C. before stimulating with LPS.
After 1 hour compound pre-incubation, 10 μl per well of 20× concentrated LPS solution in RPMI media was added to give a final concentration of 1 μg/ml. The mixture was shaken and incubated the plates at 37° C. for an additional 18 hours.
155 μl of the supernatant was harvested from each well carefully (without the tip touching the bottom of the well) and to the remaining 50 μl/well of the cell culture plate was added 50 μl of Cell Titer Glo reagent. The mixture was incubated for 1-2 minutes on a shaker and the plate was read for luminescence intensity to determine the compound cytotoxicity. The cell culture supernatant collected above was used to carry out IL23 ELISA (65 μl—Supernatant) and IL10 ELISA (90 μl—Supernatant) as described below.
Human IL-23 (p19/p40) ELISA Protocol (e-Biosciences)
To 10.5 ml PBS add 50 μl of anti-IL23 (p19) was added capture antibody (2.5 μg/ml). The mixture was mixed well and 100 μl of the coating solution was added to each well of the 96 well white plates from Pierce. The wells were covered and incubated overnight at 4° C.
The anti-IL23 (p19)-antibody-coated plates were washed 2× using TBST (use plate washer) and blocked using 200 μl of 0.5% Casein for 1.5 to 2 hours at room temperature with shaking.
The plates were washed 2× using TBST and the supernatant was transferred (65 μl/well) to the above pre-blocked/IL23(p19)-antibody-coated 96 well plate, and incubated at room temperature for 1.5 hours with shaking.
The plates were washed 4× using TBST (plate washer) and 100 μl/well detection antibody solution prepared from 2 μl of biotin labeled anti-IL-12 (p40/p70) antibody in 11 ml 1% BSA/PBS solution (1-5000 dilution) was added. The plates were incubated for 1 hour with shaking at Room temperature.
Again, the plates were washed 4× with TBST and 100 μl of HRP labeled Streptavidin (R&D Systems) solution (10 μl/10 ml 1% BSA solution) was added, and the plates were incubated at room temperature for another 45 minutes with shaking.
After 45 minutes, the plates were washed with TBST 4× and 100 μl/well Super Signal ELISA Pico Chemiluminescent Substrate from Pierce (3.5 ml A+3.5 ml B+3.5 ml MQ water) was added. The plates were shaken for 1-2 minutes then read on a plate reader. […]

Turning to `O=C(Nc1cn(C2CCOCC2)nc1-c1ccccn1)c1coc(-c2cn[nH]c2)n1` [Compound I-20, 2-(1H-pyrazol-4-yl)-N-(3-(pyridin-2-yl)-1-(tetrahydro-2H-pyran-4-yl)-1H-pyrazol-4-yl)oxazole-4-carboxamide], the EC50 in assay [1] (Table 3) came out at 39.9 nM; in assay [2] (Table 3, IFNγ 50 ng/ml), 135 nM.
`CCOCCn1cc(NC(=O)c2coc(-c3cn[nH]c3)n2)c(-c2ccccn2)n1` [Compound I-21, N-(1-(2-ethoxyethyl)-3-(pyridin-2-yl)-1H-pyrazol-4-yl)-2-(1H-pyrazol-4-yl)oxazole-4-carboxamide]: the EC50 was found to be 243 nM in assay [1] (Table 3) and 170 nM in assay [2] (Table 3, IFNγ 50 ng/ml).
For `CCO[C@H]1C[C@@H](n2cc(NC(=O)c3coc(-c4cn[nH]c4)n3)c(-c3ccccn3)n2)C1` [Compound I-22, N-(1-((1s,3s)-3-ethoxycyclobutyl)-3-(pyridin-2-yl)-1H-pyrazol-4-yl)-2-(1H-pyrazol-4-yl)oxazole-4-carboxamide] the same measures were 43.4 nM and 36.9 nM.
For `O=C(Nc1cn(C2CCC2)nc1-c1ccccn1)c1coc(-c2cn[nH]c2)n1` [Compound I-23, N-(1-cyclobutyl-3-(pyridin-2-yl)-1H-pyrazol-4-yl)-2-(1H-pyrazol-4-yl)oxazole-4-carboxamide] the same measures were 270 nM and 71 nM.
`COCCOCCn1cc(NC(=O)c2coc(-c3cn[nH]c3)n2)c(-c2ccccn2)n1` [Compound I-24, N-(1-(2-(2-methoxyethoxy)ethyl)-3-(pyridin-2-yl)-1H-pyrazol-4-yl)-2-(1H-pyrazol-4-yl)oxazole-4-carboxamide]: the EC50 in assay [1] (Homo sapiens, Table 1) stood at 238 nM; in assay [2] (Table 1, IFNγ 50 ng/ml), 217 nM.
In the case of `O=C(Nc1cn(CCOCC(F)F)nc1-c1ccccn1)c1coc(-c2cn[nH]c2)n1` [Compound I-25, N-(1-(2-(2,2-difluoroethoxy)ethyl)-3-(pyridin-2-yl)-1H-pyrazol-4-yl)-2-(1H-pyrazol-4-yl)oxazole-4-carboxamide], the EC50 in assay [1] (Table 3) was 400 nM; in assay [2] (Table 3, IFNγ 50 ng/ml), 161 nM.
With `O=C(Nc1cn([C@H]2CC[C@H](O)CC2)nc1-c1cnccn1)c1coc(-c2cn[nH]c2)n1` [Compound I-27, N-(1-((1r,4r)-4-hydroxycyclohexyl)-3-(pyrazin-2-yl)-1H-pyrazol-4-yl)-2-(1H-pyrazol-4-yl)oxazole-4-carboxamide], the EC50 was 15.8 nM in assay [1] (Homo sapiens, Table 1) and 64.1 nM in assay [2] (Table 1, IFNγ 50 ng/ml).
For `CCO[C@H]1CC[C@H](n2cc(NC(=O)c3coc(-c4cn[nH]c4)n3)c(-c3nc(F)c(F)cc3F)n2)CC1` [Compound I-28, N-(1-((1r,4r)-4-ethoxycyclohexyl)-3-(3,5,6-trifluoropyridin-2-yl)-1H-pyrazol-4-yl)-2-(1H-pyrazol-4-yl)oxazole-4-carboxamide] the same measures were 474 nM and 111 nM.
As for `CCO[C@H]1CC[C@H](n2cc(NC(=O)c3coc(-c4cn[nH]c4)n3)c(-c3cc(F)cc(F)n3)n2)CC1` [Compound I-29, N-(3-(4,6-difluoropyridin-2-yl)-1-((1r,4r)-4-ethoxycyclohexyl)-1H-pyrazol-4-yl)-2-(1H-pyrazol-4-yl)oxazole-4-carboxamide], the EC50 in assay [1] (Homo sapiens, Table 1) stood at 976 nM; in assay [2] (Table 1, IFNγ 50 ng/ml), 207 nM.
For `O=C(Nc1cn(C2CCC(N3CCOCC3)CC2)nc1-c1cnccn1)c1coc(-c2cn[nH]c2)n1` (centres unmarked) [Compound I-30, N-(1-((1r,4r)-4-morpholinocyclohexyl)-3-(pyrazin-2-yl)-1H-pyrazol-4-yl)-2-(1H-pyrazol-4-yl)oxazole-4-carboxamide] the same measures were 2.8 nM and 6.5 nM.
For `CCO[C@H]1CC[C@H](n2cc(NC(=O)c3coc(-c4cn[nH]c4)n3)c(-c3nc(C(F)(F)F)ccc3F)n2)CC1` [Compound I-31, N-(1-((1r,4r)-4-ethoxycyclohexyl)-3-(3-fluoro-6-(trifluoromethyl)pyridin-2-yl)-1H-pyrazol-4-yl)-2-(1H-pyrazol-4-yl)oxazole-4-carboxamide] the same measures were 688 nM and 973 nM.
Turning to `CCO[C@H]1CC[C@H](n2cc(NC(=O)c3coc(-c4cn[nH]c4F)n3)c(-c3cnccn3)n2)CC1` [Compound I-32, N-(1-((1r,4r)-4-ethoxycyclohexyl)-3-(pyrazin-2-yl)-1H-pyrazol-4-yl)-2-(5-fluoro-1H-pyrazol-4-yl)oxazole-4-carboxamide], the EC50 in assay [1] (Table 1) was 204 nM; in assay [1] (Table 2), 204 nM; in assay [2] (Table 1, IFNγ 50 ng/ml), 417 nM; in assay [2] (Table 2, IFNγ 50 ng/ml) it was 417 nM.
